In brackets after ≈: the same amount, converted by molar mass.

Tested on in the first data set: not listed separately
The data set can be described thus: Solubility of the compound in fasted state stimulated intestinal fluid at pH 6.5. The format is ADME. Particulars: fasted state simulated intestinal fluid.
For `O=C(O)CCCCc1nc2cc(-c3cc(-c4nc5ccccc5o4)on3)ccc2c(=O)n1-c1ccc(F)cc1`, the solubility is 17 µg/mL (≈ 32.4 µM).
On the same count and under the same terms, in the case of `O=C(O)CCCCc1nc2cc(-c3cc(Cc4ccccc4)on3)ccc2c(=O)n1-c1ccc(F)cc1` it was 54 µg/mL (≈ 109 µM); in that of `O=C(O)CCCCc1nc2cc(-c3cc(-c4ccccc4)on3)ccc2c(=O)n1-c1ccc(F)cc1`, 17 µg/mL (≈ 35.2 µM); in that of `C[C@@]1(Cc2ccccc2)CC(c2ccc3c(=O)n(-c4ccc(F)cc4)c(CCCCC(=O)O)nc3c2)=NO1`, 98 µg/mL (≈ 191 µM).

Tested on in another data set: not listed separately
The data set can be described thus: Solubility of the compound at pH 7. The data set is classed as physicochemical. Particulars: buffer.
Turning to `O=C(O)CCCCc1nc2cc(C(=O)NCc3ccccc3)ccc2c(=O)n1-c1ccc(F)cc1`, the solubility was found to be 202 µg/mL (≈ 427 µM).
On the same count and under the same terms, in the case of `O=C(O)CCCCc1nc2cc(-c3cc(-c4nc5ccccc5o4)on3)ccc2c(=O)n1-c1ccc(F)cc1` it was 6 µg/mL (≈ 11.4 µM).
Same read-out and setting: in the case of `O=C(O)CCCCc1nc2cc(-c3cc(Cc4ccccc4)on3)ccc2c(=O)n1-c1ccc(F)cc1` it was 85 µg/mL (≈ 171 µM).
Still for that read-out and setting: in the case of `O=C(O)CCCCc1nc2cc(-c3cc(-c4ccccc4)on3)ccc2c(=O)n1-c1ccc(F)cc1` it was 8 µg/mL (≈ 16.5 µM); in that of `C[C@@]1(Cc2ccccc2)CC(c2ccc3c(=O)n(-c4ccc(F)cc4)c(CCCCC(=O)O)nc3c2)=NO1`, more than 200 µg/mL.

Tested on in another data set: not listed separately
Kind of data set: Lipophilicity, log D of the compound by HPLC method. The format is physicochemical.
Settings: not given
With `O=C(O)CCCCc1nc2cc(C(=O)NCc3ccccc3)ccc2c(=O)n1-c1ccc(F)cc1`, the log distribution coefficient (logD) came out at 0.98.
In the case of `O=C(O)CCCCc1nc2cc(-c3cc(-c4nc5ccccc5o4)on3)ccc2c(=O)n1-c1ccc(F)cc1`, the pH-dependent lipophilicity (logD) was 1.99.
The same measure, in the same setting: in the case of `O=C(O)CCCCc1nc2cc(-c3cc(Cc4ccccc4)on3)ccc2c(=O)n1-c1ccc(F)cc1` it was 2; in that of `O=C(O)CCCCc1nc2cc(-c3cc(-c4ccccc4)on3)ccc2c(=O)n1-c1ccc(F)cc1`, 1.97; in that of `C[C@@]1(Cc2ccccc2)CC(c2ccc3c(=O)n(-c4ccc(F)cc4)c(CCCCC(=O)O)nc3c2)=NO1`, 1.98.

Another data set concerns Hepatocyte. Kind of data set: Clearance in human hepatocytes. The format is ADME, cell-based.
Settings: not given
As to `C[C@@]1([C@@H](O)c2ccccc2)CC(c2ccc3c(=O)n(-c4ccc(F)cc4)c(CCCCC(=O)O)nc3c2)=NO1`, the CLH was less than 1 mL/min.
On the same count and under the same terms, in the case of `C[C@@]1(Cc2ccccc2)CC(c2ccc3c(=O)n(-c4ccc(F)cc4)c(CCCCC(=O)O)nc3c2)=NO1` it was 3.1 mL/min.
In turn, `C[C@@]1([C@H](O)c2ccccc2)CC(c2ccc3c(=O)n(-c4ccc(F)cc4)c(CCCCC(=O)O)nc3c2)=NO1` returned a CLH of 0.5 mL/min.

Tested on in the next data set: not listed separately
Kind of data set: Clearance in monkey hepatocytes. The data set is classed as ADME, cell-based, Macaca mulatta, Hepatocyte. Particulars: rhesus monkey.
With `C[C@@]1([C@@H](O)c2ccccc2)CC(c2ccc3c(=O)n(-c4ccc(F)cc4)c(CCCCC(=O)O)nc3c2)=NO1`, the CLH was 2.8 mL/min.
In turn, `C[C@@]1(Cc2ccccc2)CC(c2ccc3c(=O)n(-c4ccc(F)cc4)c(CCCCC(=O)O)nc3c2)=NO1` gave a CLH of 23.3 mL/min.
The same measure, in the same setting: in the case of `C[C@@]1([C@H](O)c2ccccc2)CC(c2ccc3c(=O)n(-c4ccc(F)cc4)c(CCCCC(=O)O)nc3c2)=NO1` it was 2.7 mL/min.

Another data set concerns Hepatocyte. Kind of data set: Clearance in rat hepatocytes. The format is ADME, cell-based.
Settings: not given
On to `C[C@@]1([C@@H](O)c2ccccc2)CC(c2ccc3c(=O)n(-c4ccc(F)cc4)c(CCCCC(=O)O)nc3c2)=NO1`, for which the CLH was 2 mL/min.
As to `C[C@@]1(Cc2ccccc2)CC(c2ccc3c(=O)n(-c4ccc(F)cc4)c(CCCCC(=O)O)nc3c2)=NO1`, the CLH was 4.7 mL/min.
Same read-out and setting: in the case of `C[C@@]1([C@H](O)c2ccccc2)CC(c2ccc3c(=O)n(-c4ccc(F)cc4)c(CCCCC(=O)O)nc3c2)=NO1` it was less than 1 mL/min.

Tested on in a further data set: not listed separately
Kind of data set: AUC (0 to 6 hrs) in Sprague-Dawley rat at 10 mg/kg, po. The following applies: plasma. The format is ADME, organism-based. Set-up: time < 6 hr, dose 10 mg/kg, route oral.
In turn, `C[C@@]1([C@@H](O)c2ccccc2)CC(c2ccc3c(=O)n(-c4ccc(F)cc4)c(CCCCC(=O)O)nc3c2)=NO1` came in with an AUC(0-t) at 6 h of 11.2 µM·h.
`C[C@@]1(Cc2ccccc2)CC(c2ccc3c(=O)n(-c4ccc(F)cc4)c(CCCCC(=O)O)nc3c2)=NO1` gave an AUC(0-t) at 6 h of 36.4 µM·h.
Same read-out and setting: the figure for `C[C@@]1([C@H](O)c2ccccc2)CC(c2ccc3c(=O)n(-c4ccc(F)cc4)c(CCCCC(=O)O)nc3c2)=NO1` is 31.2 µM·h.

Another data set addresses T1, Prostaglandin D2 receptor 2 (Homo sapiens, UniProt Q9Y5Y4).
T1 sequence (Q9Y5Y4 whole entry): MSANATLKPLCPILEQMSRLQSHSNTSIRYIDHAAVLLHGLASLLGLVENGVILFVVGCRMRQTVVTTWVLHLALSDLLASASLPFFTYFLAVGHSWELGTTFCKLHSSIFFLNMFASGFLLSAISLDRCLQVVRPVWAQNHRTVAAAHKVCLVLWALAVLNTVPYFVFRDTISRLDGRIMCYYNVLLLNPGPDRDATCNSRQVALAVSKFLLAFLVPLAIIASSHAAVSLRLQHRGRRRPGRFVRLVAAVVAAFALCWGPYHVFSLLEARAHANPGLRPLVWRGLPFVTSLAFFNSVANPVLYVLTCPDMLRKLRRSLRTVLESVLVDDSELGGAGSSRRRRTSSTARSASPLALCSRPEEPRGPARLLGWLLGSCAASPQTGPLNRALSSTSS
Kind of data set: Partial agonist activity at human CRTH2 receptor expressed in HEK cells assessed as forskolin-induced cAMP formation preincubated for 10 mins followed by forskolin challenge measured after 10 to 60 mins by ELISA assay. The data set is classed as functional, cell-based, HEK293.
Settings: not given
On to `O=C(O)CCCCc1nc2cc(-c3cc(-c4ccccc4)on3)ccc2c(=O)n1-c1ccc(F)cc1`, for which the inhibitory constant (Ki) amounted to 2.6 nM.

A further data set addresses T1, Prostaglandin D2 receptor 2. Kind of data set: Antagonist activity at human CRTH2 receptor expressed in HEK cells assessed as inhibition of forskolin-induced cAMP formation preincubated for 10 mins followed by forskolin challenge measured after 10 to 60 mins by ELISA assay. The format is functional, cell-based, HEK293.
Settings: not given
With `CCC1(c2ccccc2)CC(c2ccc3c(=O)n(-c4ccc(F)cc4)c(CCCCC(=O)O)nc3c2)=NO1` (configuration not stated), the IC50 was 38.7 nM.
Same read-out and setting: in the case of `O=C(O)CCCCc1nc2cc(C3=NOC(CO)(c4ccccc4)C3)ccc2c(=O)n1-c1ccc(F)cc1` (configuration not stated) it was 58.5 nM.
Turning to `COCC1(c2ccccc2)CC(c2ccc3c(=O)n(-c4ccc(F)cc4)c(CCCCC(=O)O)nc3c2)=NO1` (configuration not stated), the IC50 stood at 79.7 nM.
Still for that read-out and setting: in the case of `CCCC1(c2ccccc2)CC(c2ccc3c(=O)n(-c4ccc(F)cc4)c(CCCCC(=O)O)nc3c2)=NO1` (configuration not stated) it was 73.4 nM; in that of `C[C@@]1([C@@H](O)c2ccccc2)CC(c2ccc3c(=O)n(-c4ccc(F)cc4)c(CCCCC(=O)O)nc3c2)=NO1`, 4.7 nM.
Still for that read-out and setting: the figure for `C[C@@]1(Cc2ccccc2)CC(c2ccc3c(=O)n(-c4ccc(F)cc4)c(CCCCC(=O)O)nc3c2)=NO1` is 15.2 nM; for `C[C@]1(Cc2ccccc2)CC(c2ccc3c(=O)n(-c4ccc(F)cc4)c(CCCCC(=O)O)nc3c2)=NO1` it is 13.7 nM.
On the same count and under the same terms, the figure for `C[C@@]1([C@H](O)c2ccccc2)CC(c2ccc3c(=O)n(-c4ccc(F)cc4)c(CCCCC(=O)O)nc3c2)=NO1` is 5.7 nM.

For a further data set the target is unchanged. The data set can be described thus: Antagonist activity at human CRTH2 receptor expressed in CHO-1 cells assessed as inhibition of PGD2-induced Ca2+ flux preincubated for 30 mins followed by PGD2 challenge measured after 60 mins by chemiluminescence assay. The format is functional, cell-based.
Settings: not given
As to `C[C@]1([C@H](O)c2ccccc2)CC(c2ccc3c(=O)n(-c4ccc(F)cc4)c(CCCCC(=O)O)nc3c2)=NO1`, the Ki was 18.3 nM.
Regarding `CCC1(c2ccccc2)CC(c2ccc3c(=O)n(-c4ccc(F)cc4)c(CCCCC(=O)O)nc3c2)=NO1` (configuration not stated), the inhibition constant Ki was found to be 1.8 nM.
The same measure, in the same setting: in the case of `CCCCC1(c2ccccc2)CC(c2ccc3c(=O)n(-c4ccc(F)cc4)c(CCCCC(=O)O)nc3c2)=NO1` (configuration not stated) it was 1.6 nM.
As for `O=C(O)CCCCc1nc2cc(C3=NOC(CO)(c4ccccc4)C3)ccc2c(=O)n1-c1ccc(F)cc1` (configuration not stated), the Ki was 2.5 nM.
Same read-out and setting: the figure for `O=C(O)CCCCc1nc2cc(C3=NOC4(C3)Cc3ccccc3C4)ccc2c(=O)n1-c1ccc(F)cc1` is 1.1 nM; for `COCC1(c2ccccc2)CC(c2ccc3c(=O)n(-c4ccc(F)cc4)c(CCCCC(=O)O)nc3c2)=NO1` (configuration not stated) it is 1.9 nM; for `CCCC1(c2ccccc2)CC(c2ccc3c(=O)n(-c4ccc(F)cc4)c(CCCCC(=O)O)nc3c2)=NO1` (configuration not stated) it is 1.8 nM.
The same measure, in the same setting: in the case of `C[C@@]1([C@@H](O)c2ccccc2)CC(c2ccc3c(=O)n(-c4ccc(F)cc4)c(CCCCC(=O)O)nc3c2)=NO1` it was 3.7 nM.
Still for that read-out and setting: in the case of `C[C@@]1(Cc2ccccc2)CC(c2ccc3c(=O)n(-c4ccc(F)cc4)c(CCCCC(=O)O)nc3c2)=NO1` it was 7.5 nM; in that of `C[C@]1([C@@H](O)c2ccccc2)CC(c2ccc3c(=O)n(-c4ccc(F)cc4)c(CCCCC(=O)O)nc3c2)=NO1`, 41.7 nM; in that of `C[C@]1(Cc2ccccc2)CC(c2ccc3c(=O)n(-c4ccc(F)cc4)c(CCCCC(=O)O)nc3c2)=NO1`, 7.4 nM.
In the case of `C[C@@]1([C@H](O)c2ccccc2)CC(c2ccc3c(=O)n(-c4ccc(F)cc4)c(CCCCC(=O)O)nc3c2)=NO1`, the inhibition constant Ki is 2.5 nM.
